Measured values from patent US10098352B2, “Honeybee repellents and uses thereof” (Inscent, Inc., priority 2011, dated 2018).

Assays:
[1] = test system: Apis mellifera Carniolan foraging worker honeybees; assay: Proboscis extension response (PER) assay in bees conditioned to 2-heptanone; type: in vivo; settings: final compound concentration 0.5% (TRITON X-100/water), 4 s exposure; only bees PER-positive to 2-heptanone and negative to controls counted
Description: To determine whether a living honeybee can recognize a candidate compound, these compounds were tested using a proboscis extension response (PER) assay using classical conditioning approaches. Proboscis extension response conditioning is a case of appetitive learning, in which bees learn to associate odor stimuli with sucrose reward in the laboratory. In this case, bees were conditioned to produce a PER to 2-heptanone as the conditioned stimulus and a sugar reward as the unconditioned stimulus. These trained bees were then exposed to an odor pulse of a candidate compound to test whether a candidate compound would also produce a PER. If the candidate compound “mimics” 2-heptanone then the honeybee will extend its proboscis.
For conditioning procedures, Apis mellifera Carniolan foraging worker honeybees were obtained from a local apiary (typically 60 bees per shipment). The honeybees were held overnight in insect cages with food and water freely available, in an environmentally controlled room on a light cycle similar to the ambient cycle at the time of the assay.
For conditioning procedures, all tests were done in an odorant delivery apparatus set inside a fume hood. The apparatus comprised a set of open-ended, horizontal, 3 cm diameter by 10 cm long plastic tubes. Each tube was designed where a honeybee could be positioned at the distal end of a tube, with the opening at the other end of the tube located proximal to an inlet of the fume hood. To deliver an odorant, room air was pumped by a diaphragm pump through a particle filter via 0.25 inch plastic tubing at approximately 0.7 m/sec. The air flow passes into the headspace above an odorant (0.5% [v/v]2-heptanone dissolved in odorless light paraffin oil) contained in a 100 mL bottle. The headspace air then passes through another plastic tube to a manifold of 4-way valves, each of which was attached near the proximal end of a plastic tube containing a bee. Each bee was exposed separately for a desired time period to the odorant by opening and closing the appropriate valve. When each valve was closed, the odor was flushed away immediately by the continuous fume hood air stream.
To train a honeybee to respond to a conditioned and unconditioned stimuli, bees were placed, without anesthesia, in individual 1.5 mL micro-centrifuge holding tubes and held overnight without access to food or water. The holding tubes containing the starved bees were placed in racks in groups of eight. One rack at a time was placed behind the odorant delivery apparatus so that each bee's head is centered at the distal end of a horizontal plastic tube. Each bee was exposed to the 2-heptanone odorant alone for four seconds, and then while being fed an 80% sucrose solution for and additional three seconds. The sucrose solution was delivered on a piece of saturated filter paper held in forceps. […] Positive and negative responses were recorded. A positive PER was scored when a bee extended its proboscis before the sucrose appeared. In a typical trial, 48 individual bees were subjected to conditioning. Six rounds of training were done before testing began, and typically a majority of the bees were successfully conditioned by the second or third round of training.
After conditioning, honeybees were tested with the candidate compounds the same day or on the following day or, most commonly, both. When held overnight, bees were fed with sucrose and kept in their holding tubes. When tested the day after training, bees were given one or more rounds of conditioning with 2-heptatone to refresh their memories. Candidate compounds stocks were made at 5% (w/v) in polyoxyethylene octyl phenyl ether (TRITON® X-100), a non-ionic detergent/surfactant, and stored at 4° C. This detergent is similar to substances used as carriers for a variety of commercial pest-control agents, can act as a solvent for both hydrophilic and hydrophobic substances, and is itself nearly odorless. […]

[2] = test system: Apis mellifera Carniolan foraging worker honeybees; assay: Choice test in free-flight box apparatus; type: in vivo; settings: for Repellence Score: percent food-weight change vs corresponding dishes in preceding test
Description: To determine whether living honeybees will choice to move towards a source of a candidate compound, these compounds were assayed using a choice test in a free-flight box apparatus.
All tests were done in a free-flight box apparatus. The apparatus comprises a 244 cm long×46 cm deep×30 cm high clear plastic box including two equally-sized independent testing chambers, each with 10 cm diameter air inlets that admit filtered room air, separated by a smaller central chamber with a screened air outlet to each testing chamber. Air can be pulled through the sealed box via a 10 cm diameter duct from the air outlet using an AQE Fume Fighter 500 fume extractor (BPA Air Quality Solutions, LLC, Charleston, S.C.), which removes the test odors using activated charcoal and HEPA filters. The box is housed in an environmentally controlled room with overhead illumination timed to correspond to the current ambient light cycle including 2 additional sets of lights timed to approximate crepuscular lighting conditions. The bottom of the apparatus was lined with clean absorbent paper marked with a 4×9 grid pattern, forming 12 cm×12 cm squares with marked coordinates.
Apis mellifera Carniolan foraging worker honeybees were obtained from a local apiary (typically 60 bees per shipment). Thirty honeybees were put into each testing chamber and were allowed to acclimate for 24 hours with food and water freely available.
At the beginning of each test day all food was removed from the test chamber, but water was continually available throughout all tests. For each test, approximately 0.3 g of organic, raw orange blossom honey was added to each clean small plastic weigh boat (Cole-Palmer). The honey boats were placed in small plastic culture dishes, which were distributed in the marked squares in the chambers. The positions of the dishes on the grid for a set of trials was chosen to avoid the bees' preferred resting area so that they had to find the food actively, but the same dish positions were maintained for a given set of trials. […] The honey in each boat was weighed on an analytical balance before and after the test, with the screened sample as a control for evaporative loss. The fume extractor was left off during the experimental trails, and was turned on to clear the air after the test dishes were covered and removed from the chamber at the end of each trial.
Based on the observation that bees tend to return to dishes in the same position where they have fed before, each set of trials with each group of bees began with “Pattern Identification” tests to see which dishes lose the most weight, reflecting the most feeding. Once bees were consuming an acceptable amount in 10-15 min, typically in 1-2 trials, we began a set of test compound trials. The test compound was pipetted onto pieces of filter paper placed on the dish bottom below the boat containing a fresh, weighed honey sample so that the test compound was inaccessible to the bees. We used 2 μL of a candidate compound at a concentration of 0.05-0.5%, in Triton X-100 or paraffin oil, on each of four pieces of filter paper per dish. The test-solution dishes were set at the same positions as the one or two dishes favored in the preceding Pattern Identification trial. To eliminate interference from the solvent, the other dishes without the test substance contained the same volume of the appropriate solvent on filter papers as the test solution dishes. The bees were allowed to feed for 10-15 minutes. Bee movements were recorded by a small, wide-angle digital video camcorder (HD Hero 960; GoPro, Halfmoon Bay, Calif.) placed on a tripod in front of the test chamber. The bees were given a brief rest while the honey was weighed and a second test was begun with fresh dishes, except that the test compound-containing dish or dishes were placed at whichever positions were most visited in the preceding test. […] The bees were then rested for 1-3 hours and a subsequent set of trials begun with another Pattern Identification. […]

[3] = test system: OBP2; assay: Fluorescent-quench ligand-protein-binding assay (OBP2 binding screen); design: species or system Apis mellifera; key: Low, indicates no detectable binding to OBP2.; Moderate, indicates that 50% or less of the compound bound to OBP2.; Strong, indicates that 51% or more of the compound bound to OBP2
Description: To identify a honeybee repellent disclosed herein, candidate compounds were screened based upon the fact that 2-heptanone is an established repellent of bees. 2-heptanone is thought to mediate its behavioral response through binding to a specific odorant-binding protein called OBP2. Therefore compounds that bind OBP2 have the potential to act as odor “mimics” of 2-heptanone. By utilizing a fluorescent-quench, ligand-protein-binding assay, 30,000 compounds from the DIVERSET® library (ChemBridge Corp., San Diego, Calif.), a chemical library, were screened and over 150 candidate compounds were isolated that bind OBP2 (Table 1). Such assays are generally known in the art. See, e.g., Briand, et al., Ligand-Binding Properties and Structural Characterization of a Novel Rat Odorant-Binding Protein Variant, Eur. J. Biochem. 267(10): 3079-3089 (2000); Briand, et al., Ligand Binding and Physico-Chemical Properties of ASP2, A Recombinant Odorant-Binding Protein From Honeybee (Apis mellifera L.), Eur. J. Biochem. 268(3): 752-760 (2001); Briand, et al., Characterization of a Chemosensory Protein (ASP3c) from Honeybee (Apis mellifera L.) as a Brood Pheromone Carrier, Eur. J. Biochem. 269(18): 4586-4596 (2002), each of which is hereby incorporated by reference in its entirety.

[4] = amount 0.5%, negative = increase in food consumption

Compound	2-heptanone positive bees testing positive to compound [1]	Effectiveness at 10-fold lower concentration ([2]; 0.05% compared with 0.5%)	Repellence Score ([2]; amount 0.05%)	Repellence Score [2, 4]	OBP2 binding characteristic of compound [3]
O=[N+]([O-])c1cc2c(cc1CN1CCN(c3ccccc3)CC1)OCO2 [compound 26]	14.8%	significantly more effective	60.0%	58.6%	
O=C1OC(c2ccccc2)=NC1=Cc1cccs1 [compound 9, 2-phenyl-4-(2-thienylmethylene)-1,3-oxazol-5(4H)-one]	9.7%			43.3%	Moderate (Moderate, indicates that 50% or less of the compound bound to OBP2.)
Ic1ccc(-c2cn3ccsc3n2)cc1 [compound 53]	18.2%				Moderate (Moderate, indicates that 50% or less of the compound bound to OBP2.)
O=[N+]([O-])c1cc2c(cc1CN1CCN(c3ccccc3)CC1)OCO2 [compound 61]	17.4%				Moderate (Moderate, indicates that 50% or less of the compound bound to OBP2.)
CC1CN(c2ccc([N+](=O)[O-])c(NCCOc3ccc(Cl)cc3)c2)CCN1 (stereo not shown) [compound 60]	25.0%				Moderate (Moderate, indicates that 50% or less of the compound bound to OBP2.)
CC1=CC(C)(C)N(C(=O)c2ccc(Br)cc2)c2ccccc21 [compound 11]	4.8%				Moderate (Moderate, indicates that 50% or less of the compound bound to OBP2.)
COc1ccc(C(=O)C=Cc2cn(C)c3ccccc23)cc1 [compound 50, 1-(4-methoxyphenyl)-3-(1-methyl-1H-indol-3-yl)-2-propen-1-one]	22.2%			55.7%	
O=c1[nH]c2ccccc2nc1-c1ccccc1NCc1ccc(F)cc1 [compound 18]	4.1%				Strong (Strong, indicates that 51% or more of the compound bound to OBP2.)
O=C(C=Cc1ccccc1)OCC1CCCN(Cc2cccc([N+](=O)[O-])c2)C1 (stereo not shown) [compound 23]	3.3%				Strong (Strong, indicates that 51% or more of the compound bound to OBP2.)
O=C(Nc1ccccc1)Nc1ccccc1C#Cc1ccccc1 [compound 57]	16.7%				Moderate (Moderate, indicates that 50% or less of the compound bound to OBP2.)
CCN1C(=O)C(=Cc2ccc(O)cc2)SC1=S [compound 15]	4.1%				Strong (Strong, indicates that 51% or more of the compound bound to OBP2.)
Cc1cc(O)c(C2=Nc3ccccc3SC(c3ccc(O)cc3)C2)c(=O)o1 (stereo not shown) [compound 35]	9.0%				Moderate (Moderate, indicates that 50% or less of the compound bound to OBP2.)
COC(=O)C=C(C)NC(=O)c1ccc(F)cc1 [compound 59]	16.7%				Moderate (Moderate, indicates that 50% or less of the compound bound to OBP2.)
COc1ccc2oc(C)c(C(=O)c3ccc(Br)cc3)c2c1 [compound 17]	6.2%				Strong (Strong, indicates that 51% or more of the compound bound to OBP2.)
COc1ccc(CN2CCN(c3cccc(C)c3C)CC2)c(C)c1C [compound 29]	0.0%				Low*
COc1ccc(CN2CCN(C)CC2)c(C)c1C [compound 25]	6.6%				Low*
COc1cc(C=NO)ccc1Oc1ccc([N+](=O)[O-])cc1 [compound 3, 3-methoxy-4-(4-nitrophenoxy)benzaldehyde oxime]	14.5%			49.8%	
